Results as given in patent US20240059710A1, “KRAS G12D Inhibitors” (Jacobio Pharmaceuticals Co., Ltd., priority 2020, published 2024).

Legend:
[1] = molecular target: T1, GDP-loaded HIS-KRAS (G12D, aa 1-169) (Homo sapiens, UniProt P01116, G12D); experiment: SOS1 catalyzed nucleotide exchange assay; type: biochemical; settings: SOS1 ExD, TR-FRET, 4 hours at 25° C.
T1 construct: GDP-loaded HIS-KRAS (G12D, aa 1-169)
Experimental: 1. SOS1 Catalyzed Nucleotide Exchange Assay
GDP-loaded HIS-KRAS (G12D, aa 1-169) was pre-incubated with a compound in the presence of 10 nM GDP in a 384-well plate (Greiner) for 15 min, then purified SOS1 ExD (Flag tag, aa 564-1049), BODIPY™ FL GTP (Invitrogen) and MAb (monoclonal antibody) Anti 6HIS-Tb cryptate Gold (Cisbio) were added to the assay wells (Final concentration: 1.5 nM GDP-loaded HIS-KRAS (G12D), 5 nM GDP, 0.5 μM SOS1 ExD, 80 nM BODIPY™ FL GTP, 52.5 ng/mL MAb Anti 6HIS-Tb cryptate Gold) and incubated for 4 hours at 25° C. Wells containing same percent of DMSO served as vehicle control, and wells without KRAS served as low control. TR-FRET signals were read on Tecan Spark multimode microplate reader. The parameters were F486: Excitation 340 nm, Emission 486 nm, Lag time 100 μs, Integration time 200 μs; F515: Excitation 340 nm, Emission 515 nm, Lag time 100 μs, Integration time 200 μs. TR-FRET ratios for each individual wells were calculated by equation: TR-FRET ratio=(Signal F515/Signal F486)*10000. The percent of activation of compounds treated wells were normalized between vehicle control and low control (% Activation=(TR-FRET ratioCompound treated−TR-FRET ratioLow control)/(TR-FRET ratioVehicle control−TR-FRET ratioLow control)*100%). Then the data were analyzed either by fitting a 4-parameter logistic model or by Excel to calculate IC50 values.

[2] = molecular target: T2, GppNp-loaded HIS-KRAS (G12D, aa 1-169) / cRAF RBD (Homo sapiens, UniProt P01116, G12D); experiment: GTP-KRAS and cRAF interaction assay; type: binding; settings: HTRF, 2 hours at 25° C.
T2 construct: GppNp-loaded HIS-KRAS (G12D, aa 1-169)
Experimental: 2. GTP-KRAS and cRAF Interaction Assay
GppNp-loaded HIS-KRAS (G12D, aa 1-169) was pre-incubated with a compound in the presence of 200 µM GTP in a 384-well plate (Greiner) for 15 min, then cRAF RBD (GST tag, aa 50-132, CreativeBioMart), MAb Anti GST-d2 (Cisbio) and MAb Anti 6HIS-Tb cryptate Gold (Cisbio) were added to the assay wells (Final concentration: 2.0 nM GppNp-loaded HIS-KRAS (G12D), 100 μM GTP, 35 nM cRAF RBD, 1 μg/mL MAb Anti GST-d2, 52.5 ng/mL MAb Anti 6HIS-Tb cryptate Gold) and incubated for 2 hours at 25° C. Wells containing same percent of DMSO served as vehicle control, and wells without KRAS served as low control. HTRF signals were read on Tecan Spark multimode microplate reader and HTRF ratios were calculated under manufacturer's instructions. The percent of activation of compounds treated wells were normalized between vehicle control and low control (% Activation=(HTRF ratioCompound treated−HTRF ratioLow control)/(HTRF ratioVehicle control−HTRF ratioLow control)*100). Then the data were analyzed either by fitting a 4-parameter logistic model or by Excel to calculate IC50 values.

[3] = tested on: AGS cells expressing KRAS G12D; experiment: Phospho-ERK1/2(THR202/TYR204) HTRF assay; type: cell-based; settings: Homo sapiens, 2 hours incubation, read-out: AGS p-ERK IC50
Experimental: AGS cells expressing KRAS G12D were cultured in F12K medium (Gibco) containing 10% fetal bovine serum (Gibco). The AGS cells in culture medium were seeded in 96-well plates at a concentration of 40,000 cells/well and then put in a 37° C./5% CO2 cell incubator to incubate overnight. The next day, culture medium was removed and the compound diluted in assay medium (F12K, 0.1% FBS) was added in each well. After 2 hours incubation in a 37° C./5% CO2 cell incubator, the assay medium in 96-well plates was removed, then 50 μL of 1× blocking reagent-supplemented lysis buffer (Cisbio) was added and the plates were incubated at 25° C. for 45 min with shaking. 10 μL of cell lysates from the 96-well plates were transferred to a 384-well plate (Greiner) containing 2.5 μL/well HTRF® pre-mixed antibodies (Cisbio 64AERPEH). Incubate 4 hours at 25° C. and then read HTRF signals on Tecan Spark multimode microplate reader. The data were analyzed using a 4-parameter logistic model to calculate IC50 values.

[4] = tested on: AGS; experiment: Cell growth inhibition assay (AGS); type: cell-based; settings: Homo sapiens, 144 h, 6 days incubation, CellTiter-Glo
Experimental: (§1) 4. Cell Growth Inhibition Assay
AGS cultured in F12K medium (Gibco) containing 10% fetal bovine serum (Gibco). Cells in culture medium were plated in 96-well plates at a concentration of 500 cells/well ([…]) and allowed to attach overnight.
(§2) The next day, compounds were diluted in culture medium and added to the plates. After 6 days incubation in a 37° C./5% CO2 cell incubator, the cell viability was detected by CellTiter-Glo® Luminescent Cell Viability Assay kit (Promega). Luminescent signals were read on Tecan Spark multimode microplate reader and analyzed using a 4-parameter logistic model to calculate IC50 values.

[5] = tested on: AsPC-1; experiment: Cell growth inhibition assay (AsPC-1); type: cell-based; settings: Homo sapiens, ASPC1, 144 h; AsPC-1, 6 days incubation, CellTiter-Glo
Experimental: as §1
AsPC-1 cultured in RPMI-1640 medium (Gibco) containing 10% fetal bovine serum (Gibco). Cells in culture medium were plated in 96-well plates at a concentration of 1000 cells/well ([…]) and allowed to attach overnight.
as §2

T1 sequence (P01116 1-169 isoform P01116-2 G12D): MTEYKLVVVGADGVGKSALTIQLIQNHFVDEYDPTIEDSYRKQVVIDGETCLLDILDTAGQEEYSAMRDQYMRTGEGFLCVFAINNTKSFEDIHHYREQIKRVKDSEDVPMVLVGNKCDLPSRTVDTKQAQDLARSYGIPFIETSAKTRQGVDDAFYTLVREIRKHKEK
T2 sequence (P01116 1-169 isoform P01116-2 G12D): as above

SMILES	IC50 [1] [nM]	IC50 [2] [nM]	IC50 [3] [nM]	IC50 [4] [nM]	IC50 [5] [nM]
C#Cc1cccc2cc(O)cc(-c3c(C(=C)C)cc4c(N5CC6CCC(C5)N6)nc(OCC5(CN6CCOCC6)CC5)nc4c3F)c12 [Compound 105]	1.57	15.6	13	18.4	63.3
C#Cc1cccc2cc(O)cc(-c3c(C#N)cc4c(N5CC6CCC(C5)N6)nc(OCC5(CN6CCOCC6)CC5)nc4c3F)c12 (single isomer, unassigned) [Compound 60A]	766	7690			
C#Cc1cccc2cc(O)cc(-c3ccc4c(N5CC6CCC(C5)N6)nc(OC[C@@]56CCCN5C[C@H](F)C6)nc4c3F)c12 [Compound 73]	3.02	37	0.757	7	42
Oc1cc(-c2ccc3c(N4CC5CCC(C4)N5)nc(OCC4(CN5CCOCC5)CC4)nc3c2F)c2c(Cl)cccc2c1 [Compound 88]	16.7	148	35.7	17	153
C#Cc1cccc2cc(O)cc(-c3ccc4c(N5C[C@H]6C[C@@H]5CN6)nc(OCC5(CN6CCOCC6)CC5)nc4c3F)c12 [Compound 54]	89.8	356			
Oc1cc(-c2c(Cl)cc3c(N4CC5CCC(C4)N5)nc(OCC4(CN5CCOCC5)CC4)nc3c2F)c2c(Cl)cccc2c1 [Compound 37]	51.4				
C#Cc1cccc2cc(O)cc(-c3c(C)cc4c(N5CC6CCC(C5)N6)nc(OCC5(CN6CCOCC6)CC5)nc4c3F)c12 (single isomer, unassigned) [Compound 40A]	92.1	1610			
Oc1cc(-c2ccc3c(N4CC5CCC(C4)N5)nc(OCC4(CN5CCOCC5)CC4)nc3c2F)c2cccc(F)c2c1 [Compound 50]	56.9	1110	441		
C#Cc1c(F)ccc2cccc(-c3ccc4c(N5CC6CCC(C5)N6)nc(OCC5(CN6CCOCC6)CC5)nc4c3F)c12 [Compound 93]	93.2	2180			
C#Cc1cccc2cc(O)cc(-c3c(SC(F)(F)F)cc4c(N5CC6CCC(C5)N6)nc(OCC5(CN6CCOCC6)CC5)nc4c3F)c12 (single isomer, unassigned) [Compound 59A]	> 100	> 1000			
C#Cc1cccc2cc(O)cc(-c3c(Cl)cc4c(N5CC6CCC(C5)N6)nc(OCC5(CN6CCOCC6)CC5)nc4c3F)c12 (single isomer, unassigned) [Compound 35A]	651				
CCc1cccc2cc(O)cc(-c3c(C4CC4)cc4c(N5CC6CCC(C5)N6)nc(OCC5(CN6CCOCC6)CC5)nc4c3F)c12 [Compound 39]	322	1410			
Oc1cc(-c2c(Cl)cc3c(N4CC5CCC(C4)N5)nc(OCC4(CN5CCOCC5)CC4)nc3c2F)c2cccc(F)c2c1 [Compound 92]	152	3960			
CCc1cccc2cc(O)cc(-c3c(Cl)cc4c(N5CC6CCC(C5)N6)nc(OCC5(CN6CCOCC6)CC5)nc4c3F)c12 [Compound 36]	32.8				
C#Cc1cccc2cc(O)cc(-c3c(Cl)cc4c(N5CC6CCC(C5)N6)nc(OCC5(CN6CCOCC6)CC5)nc4c3Cl)c12 (single isomer, unassigned) [Compound 107A]	783	> 10000			
Oc1cc(Cl)c(C(F)(F)F)c(-c2c(Cl)cc3c(N4CC5CCC(C4)N5)nc(OC[C@@]45CCCN4C[C@H](F)C5)nc3c2F)c1 [Compound 84]	35.4	325			
C#Cc1cccc2cc(O)cc(-c3ccc4c(N5CCNC[C@H]5C)nc(OCC5(CN6CCOCC6)CC5)nc4c3F)c12 [Compound 82]		> 1000			
Oc1cc(-c2c(Cl)cc3c(N4CC5CCC(C4)N5)nc(OCC4(CN5CCOCC5)CC4)nc3c2F)c2c(F)cccc2c1 [Compound 53]	57.1	853	99.6		
C#Cc1cccc2cc(O)cc(-c3c(C4CC4)cc4c(N5CC6CCC(C5)N6)nc(OCC5(CN6CCOCC6)CC5)nc4c3F)c12 (single isomer, unassigned) [Compound 38A]	~1000	8300			
Oc1cc(Cl)c(C(F)(F)F)c(-c2ccc3c(N4CC5CCC(C4)N5)nc(OC[C@@]45CCCN4C[C@H](F)C5)nc3c2F)c1 [Compound 85]	69.1	2210			
C#Cc1cccc2cc(O)cc(-c3ccc4c(N5C6CNCC5C6)nc(OCC5(CN6CCOCC6)CC5)nc4c3F)c12 [Compound 56]	146	1910			
C#Cc1cccc2cc(O)cc(-c3ccc4c(N5C6CCC5CNC6)nc(OC[C@@]56CCCN5C[C@H](F)C6)nc4c3F)c12 [Compound 70]	8.43	59.1			140
C#Cc1c(F)ccc2cc(O)cc(-c3c(Cl)cc4c(N5CC6CCC(C5)N6)nc(OCC5(CN6CCOCC6)CC5)nc4c3F)c12 (single isomer, unassigned) [Compound 99B]	0.403	13.5			
C#Cc1cccc2cc(O)cc(-c3ccc4c(N5CCNCC5CC#N)nc(OCC5(CN6CCOCC6)CC5)nc4c3F)c12 (racemic) [Compound 134]	117	760			
C#Cc1cccc2cc(O)cc(-c3ccc4c(N5CCNC[C@H]5C)nc(OC[C@@]56CCCN5C[C@H](F)C6)nc4c3F)c12 [Compound 69]	25.1	781			1070
C#Cc1cccc2cc(O)cc(-c3c(Cl)cc4c(N5CC6CCC(C5)N6)nc(OC[C@@]56CCCN5C[C@H](F)C6)nc4c3F)c12 (single isomer, unassigned) [Compound 72A]	85.9	1480			
C#Cc1cccc2cc(O)cc(-c3ccc4c(N5[C@H]6CN[C@H](C6)[C@H]5CC#N)nc(OCC5(CN6CCOCC6)CC5)nc4c3F)c12 [Compound 128]	> 100	519			
C#Cc1c(F)ccc2cc(O)cc(-c3c(Cl)cc4c(N5CC6CCC(C5)N6)nc(OCC5(CN6CCOCC6)CC5)nc4c3F)c12 (single isomer, unassigned) [Compound 99A]	101	2070			
C#Cc1cccc2cc(O)cc(-c3c(F)cc4c(N5CC6CCC(C5)N6)nc(OCC5(CN6CCOCC6)CC5)nc4c3F)c12 (single isomer, unassigned) [Compound 41A]	120	417			
